According to US20070219115A1, “Pharmaceutical Uses of Bisphosphonates” (priority 2003, published 2007):

B1: TRAIL: TNF-related apoptosis inducing ligand, purchased from R&D systems (protein, UniProt P50591 1-281, looked up)
Tumor necrosis factor ligand …: MAMMEVQGGPSLGQTCVLIVIFTVLLQSLCVAVTYVYFTNELKQMQDKYSKSGIACFLKEDDSYWDPNDEESMNSPCWQVKWQLRQLVRKMILRTSEETISTVQEKQQNISPLVRERGPQRVAAHITGTRGRSNTLSSPNSKNEKALGRKINSWESSRSGHSFLSNLHLRNGELVIHEKGFYYIYSQTYFRFQEEIKENTKNDKQMVQYIYKYTSYPDPILLMKSARNSCWSKDAEYGLYSIYQGGIFELKENDRIFVSVTNEHLIDMDHEASFFGAFLVG

Key:
[1] = test system: MCF7 cells; experiment: Apoptosis of MCF7 cells treated with ZOL and/or PAC, evaluated by nuclear morphology; format: cell-based; details: for apoptosis: Experiment 2: 2 nM PAC 4 hours day 1, 1 μM ZOL 1 hour day 2, combined or alone, drug free medium to 48 hours
Experimental: MCF7 cells are seeded and pre-incubated then treated with ZOL and/or PAC in the sequences given below. In the case of the PAC then ZOL sequence, in one of the experiments geranylglycerol (GGOH, 50 μM) is added and then removed with the ZOL. Apoptosis is determined by evaluation of nuclear morphology.
Group 1: 25 μM ZOL (for 1 hour on day 1) followed by 2 nM PAC (for 4 hours day 2)
Group 2: 2 nM PAC (for 4 hours on day 1) followed by 25 μm ZOL (for 1 hour on day 2)
Following the last drug exposure the cells in each group are incubated in drug free medium to 48 hours.
2 nM PAC (for 4 hours on day 1) followed by 1 μM ZOL (for 1 hour on day 2). Following the last drug exposure the cells are incubated in drug free medium to 48 hours.
2 nM PAC (for 4 hours on day 1) followed by 25 μM or 1 μM ZOL (for 1 hour on day 2), with or without geranylgeraniol (GGOH) 50 μM (added and removed simultaneously with the ZOL). Following the last drug exposure the cells are incubated in drug free medium to 48 hours.

[2] = test system: MCF7Ca cells; experiment: Apoptosis/necrosis of MCF7Ca cells, nuclear morphology after Hoechst and propidium iodide staining; format: cell-based; details: for apoptotic cell death, each drug individually: MCF7Ca treated with each drug individually
Experimental: (§1) Breast cancer cells MCF7Ca (gift from Dr Chen, NY, USA) are used. Letrozole and zoledronic acid are provided by Novartis AG, Basel, Switzerland.
Following the initial dose-response studies the sequential and combined treatments are carried out using 10 μM zoledronic acid and 100 nM letrozole for 24 hours each, followed by a drug-free incubation period up to 24 hours. In some additional studies 1 μM zoledronic acid is used for 1 hour only.
The levels of apoptotic/necrotic tumour cell death are determined by evaluation of nuclear morphology following staining of the cells using Hoechst and propidium iodide.
The levels of apoptosis and necrosis caused by increasing doses of zoledronic acid is determined by expressing the cells to zoledronic acid for 1 hour, followed by a 72 hour incubation in drug-free medium. [drawing]
The levels of apoptosis caused by increasing doses of letrozole is determined by exposing the cells to letrozole for 72 hours. [drawing]
Cells are treated with a combination of 100 nM letrozole and 10 μM zoledronic acid for 24 hours, and the levels of apoptotic cell death determined following an additional 48 hours incubation in drug-free medium. [drawing]
In this series of experiments the cells are exposed to 10 μM zoledronic acid for 24 hours, washed and subsequently treated with 100 nM letrozole for 24 hours. The levels of apoptotic cell death are determined following a further 24 hours incubation in drug-free medium. [drawing]
(GGOH is an intermediary of the mevalonate pathway and is commonly used to reverse the effects of zoledronic acid inhibition of this pathway). In this set of experiments cells are treated with 100 nM letrozole for 24 hours followed by 1 hour treatment with 10 μM zoledronic acid+50 μM GGOH. The level of apoptosis is determined at 72 hours.
These experiments are performed in order to determine if the effects of zoledronic acid and letrozole are affected by starving the cells by treating them under serum-free conditions. [drawing]

[3] = following infusion of ZOL in vivo, for a few hours; cited from earlier work
[4] = test system: MCF7Ca cells; experiment: MCF7Ca cell growth, cells counted with coulter counter; format: cell-based
Experimental: as §1
MCF7Ca cells are exposed to increasing doses of zoledronic acid for 1 hour, the drug removed and the cells incubated in drug-free medium up to 72 hours. The number of cells are counted using a coulter counter. [drawing]
MCF7Ca cells are exposed to increasing doses of letrozole for 24, 48 and 72 hours. For the 24 and 48 hour time points the drug is removed and the cells incubated in drug-free medium up to 72 hours. The number of cells are counted using a coulter counter. [drawing]

[5] = test system: breast cancer lines MDA-MB-426 and MCF7; experiment: Apoptosis of breast cancer cells treated with ZOL and TRAIL; format: cell-based; details: single agents as controls
Experimental: The breast cancer lines MDA-MB-426 and MCF7 and the prostate cancer cell line PC3 are treated with ZOL (25 μM and TRAIL (purchased from R&D systems, Abingdon, UK; 10 ng/ml) for varying incubation periods and sequences as follows:
Group 1: TRAIL given first for 24 hours followed by ZOL for 48 hours. […]
Group 3: ZOL and TRAIL given simultaneously for 24 hours.
Group 4: TRAIL given first for 24 hours then ZOL for 4 hours followed by drug-free medium for 48 hours.
Group 5: ZOL given first for 4 hours and cells maintained in drug-free medium for 48 hours followed by TRAIL for 24 hours.

[6] = 100 μM, 1 hour exposure, 72 hour drug-free
[7] = group 1: TRAIL 10 ng/ml 24 hours followed by ZOL 25 μM 48 hours
[8] = group 2: ZOL 25 μM for 48 hours followed by TRAIL 10 ng/ml
[9] = group 3: ZOL 25 μM and TRAIL 10 ng/ml together for 24 hours
[10] = 100 nM (highest dose tested), 72 hours

| Molecule | apoptosis [1] [%] | apoptotic cell death, each drug individually [2] | apoptosis [5, 7] [%] | apoptosis [5, 8] [%] | apoptosis [5, 9] [%] | also measured |
| --- | --- | --- | --- | --- | --- | --- |
| CC(=O)O[C@H]1C(=O)[C@@]2(C)[C@H]([C@H](OC(=O)c3ccccc3)[C@]3(O)C[C@H](OC(=O)[C@H](O)[C@@H](NC(=O)c4ccccc4)c4ccccc4)C(C)=C1C3(C)C)[C@]1(OC(C)=O)CO[C@@H]1C[C@@H]2O (relative stereo) [PAC, [2aR-[2aα, 4β, 4αβ, 6αβ, 9α(αR*, βS*),-11α,12α,12aα,12bα]]-β-(benzoylamino)-α-hydroxybenzenepropanoic acid 6,12b-bis(acetyloxy)-12-(benzoyloxy)-2α,3,4,4a,5,6,9,10,11,12,12a,12b-dodecahydro-4,11-dihydroxy-4a,8,13,13-tetramethyl-5-oxo-7,11-methano-1H-cyclodeca[3,4]benz[1,2-b]oxet-9-yl ester] | 1.25 | – | – | – | – | – |
| CC(C)=CCC/C(C)=C/CC/C(C)=C/CC/C(C)=C/CO [GGOH, geranylgeraniol] | – | – | – | – | – | level of apoptosis with GGOH added ([2]; 100 nM letrozole 24 hours followed by 1 hour 10 μM zoledronic acid + 50 μM GGOH, apoptosis at 72 hours): reduced to the same level observed using letrozole alone; prevention of the synergistic increase in apoptotic cell death ([1]; Experiment 3: PAC followed by ZOL combined with GGOH 50 μM): 70-80% |
| O=P(O)(O)C(O)(Cn1ccnc1)P(=O)(O)O [ZOL, 2-(imidazol-1yl)-1-hydroxyethane-1,1-diphosphonic acid] | 0.25 | do not induce significant levels of apoptotic cell death | 0.5 | 0.7 | 0.7 | apoptotic cells [2, 6]: less than 3%; necrotic cell death [2, 6]: 4.5%; peak plasma concentration [3]: 1 to 2 µM; doses causing a decrease in the number of MCF7Ca ([4]; 1 hour exposure, drug-free medium up to 72 hours): above 1 μM |
| N#Cc1ccc(C(c2ccc(C#N)cc2)n2cncn2)cc1 [letrozole, 4-[α-(4-cyanophenyl)-1-(1,2,4-triazolyl)methyl]-benzonitrile] | – | do not induce significant levels of apoptotic cell death | – | – | – | apoptosis [2, 10]: less than 3%; necrosis [2, 10]: less than 4%; effect on cell number at low doses ([4]; 0.1 nM (all time points), 1 nM (24 and 48 hours)): Increased number of cells; reduction in cell number compared to control ([4]; 100 nM letrozole, 72 hours): 31% |
| B1 | – | – | 1.75 | 2.7 | 1.75 | – |
